Results published in PMC3042041 (ACS chemical biology, 2010).
pIC50: −log10 of the molar value.

Molecular target: T1, REV-ERBα (Homo sapiens, UniProt P20393)
T1 sequence (P20393 1-614): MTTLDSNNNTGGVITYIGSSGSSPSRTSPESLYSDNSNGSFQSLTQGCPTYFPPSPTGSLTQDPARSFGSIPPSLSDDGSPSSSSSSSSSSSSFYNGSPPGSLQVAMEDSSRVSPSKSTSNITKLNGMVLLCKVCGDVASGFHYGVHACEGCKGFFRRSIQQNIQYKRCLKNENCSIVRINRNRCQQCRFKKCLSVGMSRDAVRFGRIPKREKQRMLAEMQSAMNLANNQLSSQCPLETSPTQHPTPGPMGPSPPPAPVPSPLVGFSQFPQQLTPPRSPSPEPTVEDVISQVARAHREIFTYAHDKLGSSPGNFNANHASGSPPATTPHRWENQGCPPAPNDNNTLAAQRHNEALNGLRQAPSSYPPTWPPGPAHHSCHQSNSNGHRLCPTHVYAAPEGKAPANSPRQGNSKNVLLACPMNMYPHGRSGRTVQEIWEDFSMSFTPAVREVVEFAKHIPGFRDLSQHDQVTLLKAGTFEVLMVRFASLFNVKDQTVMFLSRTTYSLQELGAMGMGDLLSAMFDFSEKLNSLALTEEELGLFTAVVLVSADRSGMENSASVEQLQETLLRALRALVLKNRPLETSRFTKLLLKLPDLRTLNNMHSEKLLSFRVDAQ
Assay: Bmal1-luciferase / REV-ERBα cotransfection reporter assay in HEK293 cells
Type: cell-based

SMILES: CC(C)(C)OC(=O)CN(Cc1ccc(Cl)cc1)Cc1ccc([N+](=O)[O-])s1 [GSK4112]
- pIC50: 5.64
